We go through one compound from patent US20220213030A1, “AMINOGUANIDINE HYDRAZONES AS RETROMER STABILIZERS USEFUL FOR TREATING NEUROLOGICAL DISEASES” (OSPEDALE SAN RAFFAELE SRL, priority 2019, published 2022).

One assay concerns the target VPS35 (Mus musculus, UniProt Q9EQH3+Q9QZ88). The assay is described as follows: VPS35 levels in spinal cord extracts of C57BL6J mice by western blot. In kind it is in vivo. More on the design: Lumbar spinal cords were dissected from saline perfused mice and rapidly homogenized; from tissue; host or cells: lumbar spinal cord of mice. As to conditions: 10 mg/kg daily intraperitoneal for 7 days. Here is the method:
We next asked whether the compound 2a can cross the blood brain barrier (BBB) of the brain. We run a pharmacokinetic assay on C57BL6J mice that received daily intraperitoneal injections of compound 2a (10 mg/Kg/day). Mice were sacrificed after 1, 7, 15 and 30 days saline perfused to avoid the CNS contamination of compounds contained in blood circulation and brains used for the determination of compound 2a levels by mass spectrometry. […] We next investigated in vivo if the retromer stabilization occurs in response to Compound 2a treatment. We intraperitoneally injected R55 and Compound 2a in adult C57BL6J mice as above described. After one week, mice were sacrificed, proteins extracts were assayed by western blot.
Lumbar spinal cords were dissected from saline perfused mice and rapidly homogenized in the following lysis buffer: Tris-HCl 10 mM pH 8, EDTA pH 8 1 mM, NaCl 100 mM, NP40 1% and protease inhibitor cocktail (Sigma). Protein extracts were obtained using a tight-fitting glass Potter tissue grinder (1 ml; Wheaton) and then sonicated at a frequency of 20 kHz (10 times-1s). […] Protein concentrations were measured by BCA protein assay kit (Thermofisher) according to the manufacturer's recommendations. […] Quantifications were done using the Image Lab 6.0.1 software (Bio-Rad).

The test system of a further assay is CI-MPR. Nature of the assay: CI-MPR MFI in MNs of G93A mice. Format: in vivo, mouse. The following applies: 10 mg/kg, day 100. From the text:
We next assayed retromer proteins labelling sections of mice sacrificed at day 100 for VPS35 and NeuN. […] Similarly, we observed that VPS26 levels were increased in G93A mice receiving compound 2a (FIG. 11B). We further corroborated our experimental finding observing that compound 2a increased retromer functionality. The cation-independent mannose 6-phosphate receptor (CI-MPR) is a cargo (Arighi et al., 2004) of the retromer complex that is unstable in VPS26 knockout cells (Seaman 2004). We observed a substantial reduction of CI-MPR MFI levels in MNs of vehicle-treated G93A mice when compared with WT litters (FIG. 11C). […] Sortilin encodes for a receptor belonging to the Vps10 family, and it has been involved in Frontotemporal Dementia (FTD), (Lane 2012).
Sections from mice (frozen cryo sections) or glass covers containing cells were washed three times in PBS 1× (Lonza, 5 min each), and incubated in the following blocking mix: PBS 1×/FBS 10% (Invitrogen), BSA 1 mg/mL (Sigma), TritonX100 0.1% (Sigma), for 1 h at room temperature. Antibodies were diluted in blocking mix and incubated at +4° C. overnight according manufacturer's instructions. […]

In assay [1] the test system is poly-ubiquitinated proteins. The assay is described as follows: Poly-ubiquitinated proteins in lumbar spinal cord of G93A mice. As to conditions: 10 mg/kg, day 100. In kind it is in vivo, mouse. From the text: Ubiquitinated inclusions accumulate in MNs of sALS and fALS patients and in lumbar SCs of ALS mice (Kabashi 2001). High levels of ubiquitinated proteins may represent an overwhelmed response of MNs to protein misfolding and aggregation, as well as a reduction of lysosome functionality. We characterized poly-ubiquitinated proteins in lumbar SCs protein extracts by 10% denaturating PAGE. We included in our experiments protein extracts from Neuro2a cells treated with the proteasome inhibitor Bortezomib (BTZ), able to increase poly-ubiquitination, as an experimental control (FIG. 13A). […] We next scored ubiquitin MFI levels in ventral horn MNs of G93A mice. […] As previously observed in Neuro2a cells, the overexpression of G93A plasmids affects the Golgi apparatus, therefore we asked whether similar alterations can occur in G93A mice by labeling lumbar sections for the cis-Golgi matrix protein GM130.
Lumbar spinal cords were dissected from saline perfused mice and rapidly homogenized in the following lysis buffer: Tris-HCl 10 mM pH 8, EDTA pH 8 1 mM, NaCl 100 mM, NP40 1% and protease inhibitor cocktail (Sigma). […] Protein concentrations were measured by BCA protein assay kit (Thermofisher) according to the manufacturer's recommendations. […] Quantifications were done using the Image Lab 6.0.1 software (Bio-Rad). […]

For `N=C(N)NN=Cc1cccc(C=NNC(=N)N)c1` [Compound 2a, 1,3-Bis-amino guanidine phenyl hydrazone], the “VPS35 levels in SC extracts (ratio versus vehicle-treated mice)” value on VPS35 is “≈ 1.7”. Moreover, in the assay on CI-MPR, the “CI-MPR MFI levels” value was “significantly increased”. In addition, in assay [1], the “MFI levels of ubiquitin fluorescence in ventral horn MNs” value is recorded as “vehicle-treated G93A MNs were higher than levels scored in compound 2a-treated G93A mice” and the “poly-ubiquitination (WB densitometry)” value was “substantially reduced”.
